In one data set the test system is human HSPCs. Kind of data set: Colony-forming cell assay. The data set is classed as cell-based. Here is the method: Colony-forming cell assays were performed by plating 8×10^2 human HSPCs transduced in the presence of the different compounds in a methylcellulose-based medium (Methocult GF4434; Stem Cell Technologies). Fifteen days later colonies were scored by light microscopy for colony numbers and morphology. CFU-E and BFU-E were scored as erythroid colonies, while CFU-G, CFU-M and CFU-GM and CFU-GEMM were scored as myeloid colonies. Moreover, single colonies were plucked for molecular analysis.

The subject of the next data set is human CD34+ HSPCs. The following applies: for effect on LV transduction of combining the compound with CsH: hCB- and mPB-derived HSPC, LV MOI 1 or 10.
The test system of another data set is CB-derived CD34+ HSPCs. The following applies: Wang et al. 2014; cited from earlier work.

`CCCCC[C@H](O)/C=C/[C@H]1[C@H](O)CC(=O)[C@@H]1C/C=C\CCCC(=O)O` [prostaglandin E2, Prostaglandin E2, reference compound]: the colony-forming capacity result in the data set on human HSPCs (mPB-CD34+ cells, IDUA-LV MOI 50, vs control) was “No differences in colony-forming capacity”. The “effect on LV transduction of combining the compound with CsH” value with human CD34+ HSPCs is “additive”.
For the molecule `CO[C@H]1C[C@@H]2CC[C@@H](C)[C@@](O)(O2)C(=O)C(=O)N2CCCC[C@H]2C(=O)O[C@H]([C@H](C)C[C@@H]2CC[C@@H](O)[C@H](OC)C2)CC(=O)[C@H](C)/C=C(\C)[C@@H](O)[C@@H](OC)C(=O)[C@H](C)C[C@H](C)/C=C/C=C/C=C/1C` [rapamycin, Rapamycin, reference compound], the colony-forming capacity result with human HSPCs (BM-derived CD34+ cells transduced with IDUA or ARSA LV) is recorded as “no alterations in colony-forming capacity were observed”. Further, in the data set with human CD34+ HSPCs (BM-derived CD34+ cells, single hit IDUA/ARSA-LV vs two-hit standard (MOI 100)), the VCN in vitro result is reported as “comparable to the two-hit gold standard”. In the data set with human CD34+ HSPCs (BM-derived CD34+ cells, single hit vs one-hit control without drugs), the “transduction efficiency of clinical-grade IDUA and ARSA-LV” value is recorded as “able to increase transduction efficiency”. The “effect on LV transduction of combining the compound with CsH” value in the data set on human CD34+ HSPCs is listed as “additive”. In the data set with CB-derived CD34+ HSPCs, the “LV integration site profile in human HSPCs” value is on record as “not to impact the LV integration site profile in human HSPCs”.

These data come from US12485187B2, “Method for improving retroviral transduction and gene editing in hematopoietic stem cells using clyclosporin H and UM171” (Ospedale San Raffaele S.R.L, priority 2017, dated 2025).
